The source of these data is the NIST ThermoML archive (doi:10.1016/j.jct.2013.09.007).

This data set can be described thus: activity coefficient (dimensionless); of the first substance listed, at infinite dilution; xn = mol fraction of the nth substance listed. Particulars: 101 kPa, Liquid, Chromatography, x1 = 0.

Numbers after ± are expanded uncertainties.

Take `C1=CCCCC1` [cyclohexene] + CCCC[n+]1cccc(C)c1.N#C[N-]C#N: the activity coefficient was 9.2 ± 0.63 (308.15 K); 8.87 ± 0.61 (318.15 K); 8.55 ± 0.58 (328.15 K); 8.27 ± 0.56 (338.15 K); 7.99 ± 0.54 (348.15 K); 7.76 ± 0.53 (358.15 K). For the same compound, the activity coefficient (368.15 K) was determined as 7.54 ± 0.51.
As to `C1CCCCCCC1` [cyclooctane] + CCCC[n+]1cccc(C)c1.N#C[N-]C#N, the activity coefficient (308.15 K) amounted to 35.1 ± 2.4; the activity coefficient (318.15 K) was determined as 32 ± 2.2; the activity coefficient (328.15 K) was 29.7 ± 2; the activity coefficient (338.15 K) is 27.8 ± 1.9; the activity coefficient (348.15 K) turned out to be 25.8 ± 1.8; the activity coefficient (358.15 K) was 24.2 ± 1.7. Under “368.15 K”, the activity coefficient turned out to be 22.7 ± 1.6.
Take `C1CCCC1` [cyclopentane] + CCCC[n+]1cccc(C)c1.N#C[N-]C#N: the activity coefficient (308.15 K) came to 15.1 ± 1; the activity coefficient (318.15 K) worked out at 14.2 ± 1; the activity coefficient (328.15 K) came to 13.4 ± 0.9; the activity coefficient (338.15 K) was 12.6 ± 0.9; the activity coefficient (348.15 K) came out at 11.9 ± 0.8; the activity coefficient (358.15 K) was found to be 11.3 ± 0.8. The activity coefficient (368.15 K) turned out to be 10.9 ± 0.7.
Take `CCCCCCCCCC` [decane] + CCCC[n+]1cccc(C)c1.N#C[N-]C#N: the activity coefficient (308.15 K) is 275 ± 19; the activity coefficient (318.15 K) amounted to 244 ± 17; the activity coefficient (328.15 K) was found to be 219 ± 15; the activity coefficient (338.15 K) is 198 ± 14; the activity coefficient (348.15 K) was determined as 179 ± 12; the activity coefficient (358.15 K) amounted to 163 ± 11. In addition, the activity coefficient (368.15 K) was determined as 149 ± 10.
Regarding `CCOCC` [diethyl ether] + CCCC[n+]1cccc(C)c1.N#C[N-]C#N, the activity coefficient (308.15 K) was 6.37 ± 0.43; the activity coefficient (318.15 K) turned out to be 6.33 ± 0.43; the activity coefficient (328.15 K) was determined as 6.29 ± 0.43; the activity coefficient (338.15 K) was determined as 6.26 ± 0.43; the activity coefficient (348.15 K) is 6.22 ± 0.42; the activity coefficient (358.15 K) was found to be 6.19 ± 0.42. Where the note is “368.15 K”, the activity coefficient was found to be 6.15 ± 0.42.
Consider `CCCOCCC` [dipropyl ether] + CCCC[n+]1cccc(C)c1.N#C[N-]C#N, for which the activity coefficient runs as follows: (308.15 K) 18.3 ± 1.3; (318.15 K) 17.7 ± 1.2; (328.15 K) 17.2 ± 1.2; (338.15 K) 16.6 ± 1.1; (348.15 K) 16.3 ± 1.1; (358.15 K) 15.6 ± 1.1. In addition, the activity coefficient (368.15 K) came out at 15.2 ± 1.
Consider `CCO` [ethanol] + CCCC[n+]1cccc(C)c1.N#C[N-]C#N, for which the activity coefficient reads like this: (338.15 K) 0.549 ± 0.04; (348.15 K) 0.545 ± 0.04; (358.15 K) 0.541 ± 0.04; (368.15 K) 0.537 ± 0.039.
As to `CCc1ccccc1` [ethylbenzene] + CCCC[n+]1cccc(C)c1.N#C[N-]C#N, the activity coefficient by setting is: (328.15 K) 3.21 ± 0.22; (338.15 K) 3.26 ± 0.22; (348.15 K) 3.32 ± 0.23; (358.15 K) 3.35 ± 0.23; (368.15 K) 3.41 ± 0.23.
Take `CCCCCCC` [heptane] + CCCC[n+]1cccc(C)c1.N#C[N-]C#N: the activity coefficient (308.15 K) worked out at 82.8 ± 5.7; the activity coefficient (318.15 K) amounted to 75.7 ± 5.2; the activity coefficient (328.15 K) came out at 69.9 ± 4.8; the activity coefficient (338.15 K) is 64.3 ± 4.4; the activity coefficient (348.15 K) was 59.4 ± 4.1; the activity coefficient (358.15 K) was determined as 55.4 ± 3.8. Also, the activity coefficient (368.15 K) worked out at 51.7 ± 3.5.
Take `C=CCCCC` [hex-1-ene] + CCCC[n+]1cccc(C)c1.N#C[N-]C#N: the activity coefficient amounted to 22.4 ± 1.5 (308.15 K); 21.4 ± 1.5 (318.15 K); 20.4 ± 1.4 (328.15 K); 19.5 ± 1.3 (338.15 K); 18.7 ± 1.3 (348.15 K); 17.8 ± 1.2 (358.15 K). Further, where the note is “368.15 K”, the activity coefficient stood at 17.1 ± 1.2.
For the compound `CCCCCC` [hexane] + CCCC[n+]1cccc(C)c1.N#C[N-]C#N, the activity coefficient reads like this: (308.15 K) 56.1 ± 3.8; (318.15 K) 51.7 ± 3.5; (328.15 K) 47.8 ± 3.3; (338.15 K) 44.3 ± 3; (348.15 K) 41.3 ± 2.8; (358.15 K) 38.6 ± 2.6. Also, the activity coefficient (368.15 K) came to 36 ± 2.5.
As for `CC1CCCCC1` [methylcyclohexane] + CCCC[n+]1cccc(C)c1.N#C[N-]C#N, the activity coefficient is 34.1 ± 2.3 (308.15 K); 31.5 ± 2.2 (318.15 K); 29.3 ± 2 (328.15 K); 27.3 ± 1.9 (338.15 K); 25.5 ± 1.7 (348.15 K); 23.9 ± 1.6 (358.15 K). Moreover, under “368.15 K”, the activity coefficient was 22.6 ± 1.5.
Consider `CCCCCCCCC` [nonane] + CCCC[n+]1cccc(C)c1.N#C[N-]C#N, for which the activity coefficient was determined as 182 ± 13 (308.15 K); 162 ± 11 (318.15 K); 148 ± 10 (328.15 K); 134 ± 9 (338.15 K); 122 ± 8 (348.15 K); 112 ± 8 (358.15 K). For the same compound, for the setting “368.15 K”, the activity coefficient was found to be 103 ± 7.
Turning to `C=CCCCCCC` [oct-1-ene] + CCCC[n+]1cccc(C)c1.N#C[N-]C#N, the activity coefficient is 49.7 ± 3.4 (308.15 K); 46.7 ± 3.2 (318.15 K); 44 ± 3 (328.15 K); 41.8 ± 2.9 (338.15 K); 39.5 ± 2.7 (348.15 K); 37.6 ± 2.6 (358.15 K). Further, the activity coefficient (368.15 K) stood at 35.7 ± 2.4.
For the compound `CCCCCCCC` [octane] + CCCC[n+]1cccc(C)c1.N#C[N-]C#N, the activity coefficient runs as follows: (308.15 K) 123 ± 8; (318.15 K) 111 ± 8; (328.15 K) 101 ± 7; (338.15 K) 92.7 ± 6.4; (348.15 K) 85.2 ± 5.8; (358.15 K) 79 ± 5.4. Moreover, the activity coefficient (368.15 K) stood at 73.3 ± 5.
As for `CCCC(C)=O` [pentan-2-one] + CCCC[n+]1cccc(C)c1.N#C[N-]C#N, the activity coefficient turned out to be 1.81 ± 0.12 (328.15 K); 1.84 ± 0.12 (338.15 K); 1.89 ± 0.13 (348.15 K); 1.93 ± 0.13 (358.15 K); 1.96 ± 0.13 (368.15 K).
On the same counts, the results for `CCC(=O)CC` [pentan-3-one] + CCCC[n+]1cccc(C)c1.N#C[N-]C#N are 1.84 ± 0.12, 1.89 ± 0.13, 1.94 ± 0.13, 1.97 ± 0.13 and 2.01 ± 0.14.
For the compound `CCCO` [propan-1-ol] + CCCC[n+]1cccc(C)c1.N#C[N-]C#N, the activity coefficient was determined as 0.678 ± 0.046 (338.15 K), 0.663 ± 0.045 (348.15 K), 0.65 ± 0.044 (358.15 K) and 0.638 ± 0.044 (368.15 K).
Turning to `c1ccncc1` [pyridine] + CCCC[n+]1cccc(C)c1.N#C[N-]C#N, the activity coefficient (338.15 K) turned out to be 0.718 ± 0.048, the activity coefficient (348.15 K) is 0.731 ± 0.048, the activity coefficient (358.15 K) turned out to be 0.754 ± 0.05 and the activity coefficient (368.15 K) amounted to 0.768 ± 0.05.
With `C=Cc1ccccc1` [styrene] + CCCC[n+]1cccc(C)c1.N#C[N-]C#N, the activity coefficient stood at 1.39 ± 0.09 (328.15 K); 1.44 ± 0.09 (338.15 K); 1.49 ± 0.1 (348.15 K); 1.54 ± 0.1 (358.15 K); 1.59 ± 0.11 (368.15 K).
